Test results: PMC11769294, “(E)-1-(3-(3-Hydroxy-4-Methoxyphenyl)-1-(3,4,5-Trimethoxyphenyl)allyl)-1H-1,2,4-Triazole and Related Compounds: Their Synthesis and Biological Evaluation as Novel Antimitotic Agents Targeting Breast Cancer” (Pharmaceuticals, 2025)

Experiments:
[1] = system: MCF-7 breast cancer cells; test: Annexin V/PI apoptotic assay; format: cell-based, human
Experimental: (§1) Apoptotic cell death was monitored by flow cytometry using Annexin V and propidium iodide (PI) to determine the Annexin V and PI negative cells (Q4, healthy cells), Annexin V positive and PI negative cells (Q3, early apoptosis), Annexin V and PI positive cells (Q2, late apoptosis), and Annexin V negative and PI-positive cells (Q1, necrosis) cells. MCF-7 and MDA-MB-231 cells for this experiment were seeded in 6-well plates at a density of 1 × 10^5 cells/mL (3 mL). Following the protocol previously described, the cells were treated at 37 °C with either vehicle (0.1% (v/v) EtOH), phenstatin 19c, (0.1 μM and 0.5 μM), or 22b (0.1 μM, 0.5 μM and 1 μM) at the 48 h time point. Cells were harvested by centrifugation at 400× g using a temperature-controlled Sorvall centrifuge and then prepared for flow cytometric analysis. Cells were washed in Annexin V Binding Buffer 1X (binding buffer: 0.1 M 4-(2-hydroxyethyl)-1-piperazineethanesulfonic acid (HEPES), pH 7.4; 1.4 M NaCl; 25 mM CaCl2 diluted in dH2O, 0.5 mL), and incubated in the dark for 30 min on ice in Annexin V-containing binding buffer (1:100), 50 μL protected from light. Cells were then washed once in binding buffer and then re-suspended in a PI-containing binding buffer (1:1,000) (0.5 μg/mL, 500 μL) and immediately analyzed within 1 h to determine the populations produced. BD Accuri flow cytometer (BD Biosciences, 2350 Qume Dr, San Jose, CA, USA) and GraphPad Prism software were used for the analysis of the data (GraphPad Software, Inc., 2365 Northside Dr., Suite 560, San Diego, CA, USA).
(§2) Figure 11 Compound 22b induced apoptosis in (A) MCF-7 breast cancer cells and (B) MDA-MB-231 breast cancer cells. MCF-7 breast cancer cells (A) and MDA-MB-23 breast cancer cells (B) were treated with 22b (0.1, 0.5, and 1.0 μM) or phenstatin (19c) (0.1 μM and 0.5 μM) or control vehicle (0.1% ethanol (v/v)). The data shown for the control vehicle and phenstatin are as we previously reported. The apoptotic cell content was determined by staining with Annexin V-FITC and PI. […]

[2] = system: MDA-MB-231 breast cancer cells; test: Annexin V/PI apoptotic assay; format: cell-based, human
Experimental: as §1, §2

`COc1ccc(/C=C/C(c2cc(OC)c(OC)c(OC)c2)n2cncn2)cc1O` (centres unmarked) [Compound 22b, (E)-5-(3-(1H-1,2,4-Triazol-1-yl)-3-(3,4,5-trimethoxyphenyl)prop-1-en-1-yl)-2-methoxyphenol] was tested, and the “cells undergoing apoptosis (early + late)” value ([1]; 0.5 μM) was 21%, the “cells undergoing apoptosis (early + late)” value ([1]; 1 μM) was 33% and the viability at 0.1 µM ([1]; Homo sapiens, MCF7, 0.1 μM, Figure 11A) was 82.8%. For the same molecule, the viability at 0.5 µM ([1]; Homo sapiens, MCF7, 0.5 μM, Figure 11A) was 78.1%, the viability at 1 µM ([1]; Homo sapiens, MCF7, 1 μM, Figure 11A) was 60.6% and the cells in apoptosis ([2]; 0.1 μM) was 5.9%. For the same molecule, the cells in apoptosis ([2]; 0.5 μM) was 6.5%, the cells in apoptosis ([2]; 1.0 μM) was 20.8% and the viability at 0.1 µM ([2]; Homo sapiens, 0.1 μM, Figure 11B) was 92.8%. The viability at 0.5 µM ([2]; Homo sapiens, 0.5 μM, Figure 11B) was 92.1% and the viability at 1 µM ([2]; Homo sapiens, 1 μM, Figure 11B) was 77.6%.
